Values belong to the compound of their own block, whether it stands above or below them. Active and inactive are the calls of the source.
Assays:
[1] = HEp-2 cell cytotoxicity, dose response, cytotoxicity control for RSV inhibitor project, HTS (AID 2410); format: functional; conditions: human respiratory syncytial virus
[2] = biological target: T1, Heat shock factor protein 1 (Mus musculus, UniProt P38532); assay: inhibition of MG132-induced HSE-luciferase signal, confirmation, cell-based, NIH3T3, luminescence, dose retest (AID 2382); format: functional;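 also: NIH3T3 fibroblasts with HSF1-driven luciferase reporter stressed by proteasome inhibitor MG132; luminescence from HSF1-driven luciferase expression after 8 hours of MG132 stress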
T1 sequence (P38532 whole entry): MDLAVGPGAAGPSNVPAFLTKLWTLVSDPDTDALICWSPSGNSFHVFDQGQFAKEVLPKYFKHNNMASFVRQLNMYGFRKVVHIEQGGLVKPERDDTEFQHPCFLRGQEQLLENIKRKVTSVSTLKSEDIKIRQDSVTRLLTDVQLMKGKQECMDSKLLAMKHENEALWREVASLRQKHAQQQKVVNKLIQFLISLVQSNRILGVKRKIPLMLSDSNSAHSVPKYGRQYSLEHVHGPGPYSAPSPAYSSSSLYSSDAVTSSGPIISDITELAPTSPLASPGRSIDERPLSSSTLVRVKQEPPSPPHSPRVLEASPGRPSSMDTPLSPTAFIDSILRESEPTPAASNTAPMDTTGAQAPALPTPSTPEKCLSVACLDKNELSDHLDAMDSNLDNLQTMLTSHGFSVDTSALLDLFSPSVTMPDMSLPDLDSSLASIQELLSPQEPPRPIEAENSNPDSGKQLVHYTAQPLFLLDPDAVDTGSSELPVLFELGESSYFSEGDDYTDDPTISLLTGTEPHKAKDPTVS

Cytochrome P450 3A4 = Cytochrome P450 3A4 (Homo sapiens, UniProt P08684);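 also: CYP3A4 tested as one member of a cytochrome P450 panel screen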
Chain of Cytochrome P450 3A4 (P08684 whole entry): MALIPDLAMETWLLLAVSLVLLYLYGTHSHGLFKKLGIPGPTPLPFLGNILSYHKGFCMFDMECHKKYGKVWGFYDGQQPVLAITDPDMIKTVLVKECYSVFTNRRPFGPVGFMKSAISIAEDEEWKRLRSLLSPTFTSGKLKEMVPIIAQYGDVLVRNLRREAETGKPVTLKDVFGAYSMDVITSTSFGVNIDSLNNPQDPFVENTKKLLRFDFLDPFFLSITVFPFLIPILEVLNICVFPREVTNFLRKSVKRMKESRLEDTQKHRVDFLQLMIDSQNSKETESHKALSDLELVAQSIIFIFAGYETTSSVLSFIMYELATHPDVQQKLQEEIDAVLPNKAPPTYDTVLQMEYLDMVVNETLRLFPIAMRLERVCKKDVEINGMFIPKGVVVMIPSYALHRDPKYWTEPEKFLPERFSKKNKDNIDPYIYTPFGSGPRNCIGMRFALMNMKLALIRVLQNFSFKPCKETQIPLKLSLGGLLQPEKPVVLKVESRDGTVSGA

[3] = inhibitors of intracellular T. cruzi replication, confirmation, NIH3T3 host cells, beta-gal luminescence (AID 2044); format: functional, cell-based;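 also: intracellular parasites grown in NIH/3T3 mouse fibroblasts as host cells; luminescent beta-galactosidase reporter signal from transgenic T. cruzi replicating inside host cells; inhibitors lower the luminescence signal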
[4] = cytotoxicity toward NIH3T3 fibroblasts, dose response, counter-screen, cell-based, ATP luminescence, mouse fibroblasts (AID 2010); format: functional;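 also: cells exposed to compound for about 90 hours before reading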
Cytochrome P450 2C19 = Cytochrome P450 2C19 (Homo sapiens, UniProt P33261); assay: Cytochrome panel assay with activity outcomes. Panel member name: p450-cyp2c19 Compounds with AC50 equal or less than 10 uM are considered active; format: functional
Chain of Cytochrome P450 2C19 (P33261 whole entry): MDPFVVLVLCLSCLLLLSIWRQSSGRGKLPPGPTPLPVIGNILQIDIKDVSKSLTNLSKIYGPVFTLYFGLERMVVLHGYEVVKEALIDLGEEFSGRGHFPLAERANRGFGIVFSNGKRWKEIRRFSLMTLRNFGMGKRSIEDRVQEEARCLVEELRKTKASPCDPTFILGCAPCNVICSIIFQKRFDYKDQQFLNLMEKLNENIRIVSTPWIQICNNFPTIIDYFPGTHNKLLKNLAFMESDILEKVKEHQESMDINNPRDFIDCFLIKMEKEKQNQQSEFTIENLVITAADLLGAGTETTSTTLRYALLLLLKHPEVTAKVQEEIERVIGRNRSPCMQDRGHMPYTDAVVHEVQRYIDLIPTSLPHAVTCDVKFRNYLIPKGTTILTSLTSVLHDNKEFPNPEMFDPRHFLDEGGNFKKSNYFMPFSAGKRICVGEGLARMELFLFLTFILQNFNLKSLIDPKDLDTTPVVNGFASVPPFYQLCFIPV

Cytochrome P450 1A2 = biological target: T2, Cytochrome P450 1A2 (Homo sapiens, UniProt P05177);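 also: PubChem cytochrome P450 panel assay, CYP1A2 panel member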
T2 sequence (P05177 whole entry): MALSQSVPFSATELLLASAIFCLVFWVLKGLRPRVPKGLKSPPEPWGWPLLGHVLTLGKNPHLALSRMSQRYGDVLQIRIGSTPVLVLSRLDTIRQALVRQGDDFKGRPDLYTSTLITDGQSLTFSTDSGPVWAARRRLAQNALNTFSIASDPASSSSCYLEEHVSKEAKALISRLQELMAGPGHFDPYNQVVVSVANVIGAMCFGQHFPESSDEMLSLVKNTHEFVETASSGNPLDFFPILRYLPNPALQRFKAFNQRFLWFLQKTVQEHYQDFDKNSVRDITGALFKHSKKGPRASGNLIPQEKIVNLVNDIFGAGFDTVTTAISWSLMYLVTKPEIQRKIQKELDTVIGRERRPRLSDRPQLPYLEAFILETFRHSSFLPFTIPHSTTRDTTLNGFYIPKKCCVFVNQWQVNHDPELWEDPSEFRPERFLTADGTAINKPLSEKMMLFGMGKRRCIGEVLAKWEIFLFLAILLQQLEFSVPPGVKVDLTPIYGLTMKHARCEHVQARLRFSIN

Cytochrome P450 2C9 = Cytochrome P450 2C9 (Homo sapiens, UniProt P11712)
Chain of Cytochrome P450 2C9 (P11712 whole entry): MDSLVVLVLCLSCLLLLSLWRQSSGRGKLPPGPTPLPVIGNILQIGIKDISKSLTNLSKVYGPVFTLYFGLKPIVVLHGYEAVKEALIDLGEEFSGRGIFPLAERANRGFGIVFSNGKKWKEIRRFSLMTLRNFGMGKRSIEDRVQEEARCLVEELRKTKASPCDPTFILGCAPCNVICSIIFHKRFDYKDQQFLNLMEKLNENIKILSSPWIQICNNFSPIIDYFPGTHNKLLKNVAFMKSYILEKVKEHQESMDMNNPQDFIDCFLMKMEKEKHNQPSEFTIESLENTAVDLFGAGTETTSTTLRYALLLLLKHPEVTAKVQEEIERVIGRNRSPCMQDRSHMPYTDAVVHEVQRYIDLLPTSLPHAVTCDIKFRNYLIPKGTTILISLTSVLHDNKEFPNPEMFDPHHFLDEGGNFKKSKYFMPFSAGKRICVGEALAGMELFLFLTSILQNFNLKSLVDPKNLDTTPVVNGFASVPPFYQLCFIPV

[5] = biological target: T3, Corticotropin-releasing factor receptor 2/Corticotropin-releasing factor-binding protein (Homo sapiens, UniProt P24387+Q13324); assay: activators of CRF receptor 2 with binding protein – uHTS hits, confirmation (AID 602473); format: functional; conditions: read-out: EC50_Mean
T3 sequence (Q13324 whole entry): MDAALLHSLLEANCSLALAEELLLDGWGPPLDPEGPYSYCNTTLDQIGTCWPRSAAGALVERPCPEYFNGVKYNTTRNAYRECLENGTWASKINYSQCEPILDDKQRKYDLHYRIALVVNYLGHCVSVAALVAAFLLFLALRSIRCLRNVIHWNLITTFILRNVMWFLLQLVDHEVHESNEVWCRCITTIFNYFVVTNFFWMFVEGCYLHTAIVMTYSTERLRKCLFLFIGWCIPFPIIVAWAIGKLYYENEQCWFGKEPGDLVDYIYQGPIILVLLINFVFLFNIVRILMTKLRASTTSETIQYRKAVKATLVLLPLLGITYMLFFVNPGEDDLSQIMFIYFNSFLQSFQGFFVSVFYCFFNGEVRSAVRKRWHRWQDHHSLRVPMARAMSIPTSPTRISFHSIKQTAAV
T3 sequence (P24387 whole entry): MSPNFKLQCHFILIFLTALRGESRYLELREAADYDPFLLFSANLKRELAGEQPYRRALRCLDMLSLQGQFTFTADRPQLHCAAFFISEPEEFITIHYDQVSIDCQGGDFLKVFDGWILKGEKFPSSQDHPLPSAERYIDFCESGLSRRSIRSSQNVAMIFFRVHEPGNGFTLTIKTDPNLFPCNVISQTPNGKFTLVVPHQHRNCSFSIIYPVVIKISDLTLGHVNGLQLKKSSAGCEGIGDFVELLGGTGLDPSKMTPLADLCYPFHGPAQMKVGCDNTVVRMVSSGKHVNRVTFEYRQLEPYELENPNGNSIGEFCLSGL

Cytochrome P450 2D6 = Cytochrome P450 2D6 (Homo sapiens, UniProt P10635);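 also: CYP2D6 member of a cytochrome P450 panel assay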
Chain of Cytochrome P450 2D6 (P10635 whole entry): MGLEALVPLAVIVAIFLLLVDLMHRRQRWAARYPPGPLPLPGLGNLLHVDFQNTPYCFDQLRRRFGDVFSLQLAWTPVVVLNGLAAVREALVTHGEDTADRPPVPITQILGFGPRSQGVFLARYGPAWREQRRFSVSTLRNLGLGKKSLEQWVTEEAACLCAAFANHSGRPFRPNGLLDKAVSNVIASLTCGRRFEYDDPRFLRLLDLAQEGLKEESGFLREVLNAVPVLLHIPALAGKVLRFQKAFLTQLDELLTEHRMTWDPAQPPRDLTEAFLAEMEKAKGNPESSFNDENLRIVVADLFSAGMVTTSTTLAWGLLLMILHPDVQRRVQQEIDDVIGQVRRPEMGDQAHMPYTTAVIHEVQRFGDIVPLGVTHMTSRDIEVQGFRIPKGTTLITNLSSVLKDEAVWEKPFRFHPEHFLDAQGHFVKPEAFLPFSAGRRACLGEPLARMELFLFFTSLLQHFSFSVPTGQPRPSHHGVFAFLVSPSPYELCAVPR

[6] = Luminescence Cell-Based Dose Retest to Confirm Inhibitors of Cancer Stem Cells. [Related pubchem assays (depositor defined):AID2717, AID2721]; format: functional; conditions: Homo sapiens

- AC50 (Cytochrome P450 3A4): 3.98 µM (inconclusive)
Compound: N#Cc1nc(-c2ccc(OCc3ccccc3)cc2)oc1NCCN1CCOCC1

- EC50 [2]: > 195 µM (not active)
Compound: CCc1ccc(/C=C2\Oc3cc(OC(=O)N4CCOCC4)ccc3C2=O)cc1

- AC50 (Cytochrome P450 3A4): 0.0251 µM (inconclusive)
- AC50 (Cytochrome P450 2C9): 25.1 µM (inconclusive)
Compound: Cn1c(=O)c(CCc2ccccc2)nc2cnc(N3CCNCC3)nc21

- EC50 [2]: > 195 µM (not active)
Compound: CCOc1ccc(N(CC(=O)NC2CCCCC2)C(=O)CCC(=O)Nc2nc(C)cs2)cc1

- EC50 [2]: > 195 µM (not active)
Compound: CCOc1ccc2ccccc2c1CNc1nnnn1CC

- AC50 (Cytochrome P450 1A2): 12.6 µM (inconclusive)
- AC50 (Cytochrome P450 3A4): 15.8 µM (inconclusive)
Compound: O=C(Nc1cccc(F)c1)N1CC[C@@]2(CCCN(C(=O)c3cccc(F)c3)C2)C1

- AC50 (Cytochrome P450 3A4): 15.8 µM (inconclusive)
Compound: N#Cc1cccc(NC(=O)N2CCCC3(CCN(C(=O)c4csnn4)CC3)C2)c1

- EC50 [2]: > 195 µM (not active)
Compound: CCOCCCNC(=O)c1cc(C)nn1-c1ccccc1

- AC50 (Cytochrome P450 3A4): 31.6 µM (inconclusive)
Compound: COCCn1c(=O)c(-c2ccccc2)nc2cnc(Oc3ccccc3)nc21

- AC50 (Cytochrome P450 2C19): 3.55 µM (inconclusive)
Compound: CCOc1ccc(NC(=O)c2nnn(CC(=O)Nc3ccccc3OC)c2N)cc1

- EC50 [5]: 6.78 µM (active)
Compound: CSCCC(NC(=O)c1ccco1)C(=O)N1CC=C(c2ccccc2)CC1 (centres undefined)

- EC50 [2]: > 195 µM (not active)
Compound: CCCCn1c(N)nc2ccccc21

- AC50 (Cytochrome P450 3A4): 3.98 µM (inconclusive)
- AC50 (Cytochrome P450 2C9): 3.16 µM (inconclusive)
Compound: CC(=O)OC[C@@H]1O[C@H](CCO/N=C(\C)CCN2CCc3nc(-c4ccccc4)c(-c4ccccc4)cc3C2)C=C[C@@H]1OC(C)=O

- AC50 (Cytochrome P450 1A2): 3.55 µM (inconclusive)
- AC50 (Cytochrome P450 3A4): 14.1 µM (inconclusive)
Compound: CC1(C(=O)CSc2nc3ccccc3s2)CCC(=O)O1 (centres undefined)

- AC50 (Cytochrome P450 2C19): 20 µM (inconclusive)
- AC50 (Cytochrome P450 2D6): 31.6 µM (inconclusive)
- AC50 (Cytochrome P450 1A2): 10 µM (inconclusive)
- AC50 (Cytochrome P450 2C9): 31.6 µM (inconclusive)
Compound: CCNc1ncc2nc(-c3cccs3)c(=O)n(Cc3ccc(F)cc3)c2n1

- AC50 (Cytochrome P450 2D6): 25.1 µM (inconclusive)
- AC50 (Cytochrome P450 3A4): 15.8 µM (inconclusive)
- AC50 (Cytochrome P450 2C9): 15.8 µM (inconclusive)
Compound: CCNc1ncc2ncc(=O)n(CCc3ccccc3)c2n1

- AC50 (Cytochrome P450 2C19): 20 µM (inconclusive)
- AC50 (Cytochrome P450 2C9): 28.2 µM (inconclusive)
Compound: COc1ccc(NC(=O)N2CCCC2C(=O)Nc2ccccc2)cc1 (centres undefined)

- AC50 (Cytochrome P450 1A2): 14.1 µM (inconclusive)
- AC50 (Cytochrome P450 3A4): 22.4 µM (inconclusive)
Compound: COC(=O)C(NC(=O)c1ccccc1)=C1C=C(C)OC(C)=C1

- EC50 [5]: > 53 µM (inactive)
Compound: Cc1ccc(C(=O)NCCNC(=O)c2ccc(F)cc2)cn1

- AC50 (Cytochrome P450 2C19): 39.8 µM (inconclusive)
- AC50 (Cytochrome P450 2C9): 14.1 µM (inconclusive)
Compound: COC(=O)C1C(O)=C(/C=N/Cc2ccccc2)C(=O)CC1(C)C (centres undefined)

Second part, the compound before the results:

Compound: O=S(=O)(NC1CC1)c1ccc(S(=O)(=O)N2CCC(c3nc(O)c4nnn(Cc5cccc(F)c5)c4n3)CC2)cc1
- CC50 [1]: 24.8 µM (active)

Compound: CCOC(=O)c1nnn(CC(=O)NC(=O)Nc2ccc(F)cc2)c1C(=O)OCC
- EC50 [2]: > 195 µM (not active)

Compound: COc1cc(OC)c(C(=O)Nc2ccccc2-c2ccccc2)cc1OC
- CC50 [1]: 18.9 µM (active)

Compound: CCOC(=O)C1=C(N)Oc2cc(O)ccc2C1c1ccc([N+](=O)[O-])cc1 (centres undefined)
- CC50 [1]: 16.9 µM (active)
- EC50 [3]: 0.659 µM (active)
- EC50 [4]: > 60 µM (not active)

Compound: C[C@H]1C[C@@H]2[C@H]3CCC4=CC(=O)C=C[C@@]4(C)[C@@]3(Cl)[C@@H](O)C[C@]2(C)[C@]1(OC(=O)c1ccco1)C(=O)CCl
- AC50 (Cytochrome P450 2C19): 7.94 µM (inconclusive)
- AC50 (Cytochrome P450 1A2): 5.01 µM (inconclusive)
- AC50 (Cytochrome P450 2C9): 5.01 µM (inconclusive)

Compound: COc1ccc(NC(=O)N2CC[C@@]3(CCCN(C(=O)Oc4ccccc4)C3)C2)cc1
- AC50 (Cytochrome P450 2C19): 15.8 µM (inconclusive)
- AC50 (Cytochrome P450 3A4): 39.8 µM (inconclusive)
- AC50 (Cytochrome P450 2C9): 25.1 µM (inconclusive)

Compound: Cc1ccc(C(C)C)c2c1C(c1ccc3c(c1)OCO3)CC(=O)O2 (centres undefined)
- EC50 [5]: 4.51 µM (active)

Compound: S=C(c1ccc(-c2ccc(Br)cc2)o1)N1CCCCC1
- CC50 [1]: 29.3 µM (active)

Compound: CSc1cccc(NC(=O)Cn2cccc2)c1
- AC50 (Cytochrome P450 2D6): 14.1 µM (inconclusive)
- AC50 (Cytochrome P450 3A4): 22.4 µM (inconclusive)

Compound: Cc1nn(C)c(Cl)c1CN1CCCC(CO)(Cc2cccc(Cl)c2)C1 (centres undefined)
- CC50 [1]: 43.6 µM (active)

Compound: Cc1cc(C(=O)C(=O)NC(C)C)c(C)n1-c1ccc([N+](=O)[O-])cc1
- AC50 (Cytochrome P450 2C19): 0.0708 µM (inconclusive)

Compound: CCC(CC)C(=O)NCCN1CCN(C(=O)C(CC)CC)CC1
- AC50 (Cytochrome P450 2C19): 31.6 µM (inconclusive)

Compound: Cc1cccc(N2CCN(C(=O)Cc3ccc(-n4c(=O)[nH]c5ccsc5c4=O)cc3)CC2)c1C
- CC50 [1]: 30.2 µM (active)

Compound: CCOc1ccc(S(=O)(=O)N2CCN(C(=O)c3cc(-c4ccccc4)nn3-c3ccccc3)CC2)cc1
- CC50 [1]: 48 µM (active)

Compound: Cc1ccc(-c2nc3ccccc3c(=O)n2-c2ncccc2C)cc1
- AC50 (Cytochrome P450 2C19): 28.2 µM (inconclusive)
- AC50 (Cytochrome P450 2C9): 17.8 µM (inconclusive)

Compound: COc1ccc2c(c1)OC[C@H]1[C@H]2N2C(=O)CN(Cc3ccc(Cl)cc3)C(=O)[C@@]2(C)[C@H]1c1ccccc1
- CC50 [1]: 14.7 µM (active)

Compound: Cc1noc(/C=C/N(C)C)c1S(=O)(=O)N1CCN(c2ccc(F)cc2)CC1
- EC50 [2]: > 195 µM (not active)

Compound: CC1=CC(=C2C(=O)c3ccccc3C2=O)C=C(C)O1
- AC50 (Cytochrome P450 3A4): 14.1 µM (inconclusive)

Compound: CC1(C)CC(=O)C2=C(C1)N(Cc1cccnc1)C(=O)C2(NC(=O)c1cccnc1)C(F)(F)F (centres undefined)
- AC50 (Cytochrome P450 2C19): 15.8 µM (inconclusive)
- AC50 (Cytochrome P450 1A2): 28.2 µM (inconclusive)
- AC50 (Cytochrome P450 2C9): 0.0794 µM (inconclusive)

Compound: COc1ccc(-c2csc(-c3cccnc3)n2)cc1C
- CC50 [1]: 38.8 µM (active)

Compound: Cc1ccc(N(CC(=O)NC2CCCCC2)C(=O)CNC(=O)c2ccco2)c(C)c1
- EC50 [2]: > 195 µM (not active)

Compound: C/C(=N\O)c1ccc2[nH]ccc2c1
- AC50 (Cytochrome P450 2C19): 11.2 µM (inconclusive)
- AC50 (Cytochrome P450 3A4): 22.4 µM (inconclusive)

Compound: Cc1nn(-c2ccccc2)c(N2CCCCC2)c1/C=N/O
- AC50 [6]: 3.97 µM (active)
- AC50 (Cytochrome P450 3A4): 14.1 µM (inconclusive)
- AC50 (Cytochrome P450 2C9): 7.08 µM (inconclusive)

Compound: COc1c(CC=C(C)C)c(O)cc2oc(=O)c3c4ccc(O)cc4oc3c12 [GLYCYROL]
- CC50 [1]: 26.5 µM (active)
